Results reported in patent publication EP0314866A2, “Novel alkylated hormonereleasing peptides and method of treating mammals therewith” (The Administrators of The Tulane University Educational Fund, priority 1987, dated 1989).

Tested on: plasma growth hormone
Experiment: Evaluation of peptides in vivo in sheep: plasma GH after IV injection of GRF analogs
Parameters: species or system wether lambs
Conditions: lambs injected intravenously at 100 ng/kg; for Plasma GH (ng/ml) Post-inj Mean: two hours after treatment, means of 8 samples/animal from 8 animals
Procedure: The purpose of this experiment is to compare the GH releasing activities of several GRF analogs selected for expected high potency and the lack of either a terminal amide or a D-amino acid. The analogs to be compared in wether lambs at 100 ng/kg (IV) are tri-isopropyl-GRF(1-29)-NH₂, tri-isopropyl-GRF(1-29)-OH, tri-isopropyl-GRF(1-40)OH, D-ala², arg^12,21-GRF (1-29)-OH, D-ala², arg^12,21-GRF(1-29)-NH₂, GRF(1-40)-OH and GRF(1-29)-NH₂
A balanced 8 x 8 Latin square design will be used to test the following 8 treatments:
The diet used in these evaluations is a standard sheep diet (pelleted) and fresh water ad libitum. All animals are fed one daily.
The animals are individually identified by numbered ear tags and held in numbered metabolism cages.
Sheep are maintained in individual metabolism cages at all times. Each sheep has previously received an indwelling jugular cannula which is flushed daily with heparinized (400-800 IU/ml) sterile saline to help maintain patency.
All compounds are solubilized at 5 ug/ml in sterile saline containing 1% Tween 80 and injected intravenously at 100 ng/kg. Control lambs receive equal volumes of the vehicle only. The drugs are prepared each day just prior to injection to minimize sticking to the vials.
Blood is collected in heparinized tubes at 15 minute intervals for one hours prior to and for two hours after the treatments are administered. Plasma samples are removed by centrifugation and frozen.
Body weights of each animal is taken at the start of the experiment and once during treatment.
Blood samples are taken from each animal at 15 minute intervals for 3 hours each day during the 8 day trial period. The samples are analyzed for plasma growth hormone (ng/ml). Data obtained are reported below as near values obtained for each treatment.

| SMILES | Plasma GH (ng/ml) Peak | Plasma GH (ng/ml) Post-inj Mean |
| --- | --- | --- |
| CC[C@H](C)[C@H](NC(=O)[C@H](C)NC(=O)[C@H](CC(=O)O)NC(=O)[C@H](C)NC(=O)[C@@H](N)Cc1ccc(O)cc1)C(=O)N[C@@H](Cc1ccccc1)C(=O)N[C@H](C(=O)N[C@@H](CC(N)=O)C(=O)N[C@@H](CO)C(=O)N[C@@H](Cc1ccc(O)cc1)C(=O)N[C@@H](CCCNC(=N)N)C(=O)N[C@@H](CCCCN)C(=O)N[C@H](C(=O)N[C@@H](CC(C)C)C(=O)NCC(=O)N[C@@H](CCC(N)=O)C(=O)N[C@@H](CC(C)C)C(=O)N[C@@H](CO)C(=O)N[C@@H](C)C(=O)N[C@@H](CCCNC(=N)N)C(=O)N[C@@H](CCCCN)C(=O)N[C@@H](CC(C)C)C(=O)N[C@@H](CC(C)C)C(=O)N[C@@H](CCC(N)=O)C(=O)N[C@@H](CC(=O)O)C(=O)N[C@H](C(=O)N[C@@H](CCSC)C(=O)N[C@@H](CO)C(=O)N[C@@H](CCCNC(=N)N)C(=O)N[C@@H](CCC(N)=O)C(=O)N[C@@H](CCC(N)=O)C(=O)NCC(=O)N[C@@H](CCC(=O)O)C(=O)N[C@@H](CO)C(=O)N[C@@H](CC(N)=O)C(=O)N[C@@H](CCC(N)=O)C(=O)N[C@@H](CCC(=O)O)C(=O)N[C@@H](CCCNC(=N)N)C(=O)NCC(=O)N[C@@H](C)C(=O)O)[C@@H](C)CC)C(C)C)[C@@H](C)O [GRF(1-40)-OH] | 92.3 ng/mL | 25.5 ng/mL |
| CC[C@H](C)[C@H](NC(=O)[C@H](C)NC(=O)[C@H](CC(=O)O)NC(=O)[C@H](C)NC(=O)[C@H](Cc1ccc(O)cc1)NC(C)C)C(=O)N[C@@H](Cc1ccccc1)C(=O)N[C@H](C(=O)N[C@@H](CC(N)=O)C(=O)N[C@@H](CO)C(=O)N[C@@H](Cc1ccc(O)cc1)C(=O)N[C@@H](CCCNC(=N)N)C(=O)N[C@@H](CCCCNC(C)C)C(=O)N[C@H](C(=O)N[C@@H](CC(C)C)C(=O)NCC(=O)N[C@@H](CCC(N)=O)C(=O)N[C@@H](CC(C)C)C(=O)N[C@@H](CO)C(=O)N[C@@H](C)C(=O)N[C@@H](CCCNC(=N)N)C(=O)N[C@@H](CCCCNC(C)C)C(=O)N[C@@H](CC(C)C)C(=O)N[C@@H](CC(C)C)C(=O)N[C@@H](CCC(N)=O)C(=O)N[C@@H](CC(=O)O)C(=O)N[C@H](C(=O)N[C@@H](CCSC)C(=O)N[C@@H](CO)C(=O)N[C@@H](CCCNC(=N)N)C(=O)N[C@@H](CCC(N)=O)C(=O)N[C@@H](CCC(N)=O)C(=O)NCC(=O)N[C@@H](CCC(=O)O)C(=O)N[C@@H](CO)C(=O)N[C@@H](CC(N)=O)C(=O)N[C@@H](CCC(N)=O)C(=O)N[C@@H](CCC(=O)O)C(=O)N[C@@H](CCCNC(=N)N)C(=O)NCC(=O)N[C@@H](C)C(=O)O)[C@@H](C)CC)C(C)C)[C@@H](C)O [tri-isopropyl-GRF(1-40)-OH, [N ^α-Isopropyl-Tyr¹, N ^ε-isopropyl-Lys^12,21]GRF(1-40)OH] | 108.6 ng/mL | 34.0 ng/mL |
